Measured values taken from US20230348424A1, “HETEROCYCLIC COMPOUNDS AND METHODS OF USE” (Schrödinger, Inc., priority 2022, published 2023).

Experiments:
[1] = target: SOS1:KRAS (G12C) interaction (Homo sapiens (Human), UniProt Q07889); assay: SOS1 KRas(G12C) FRET Assay; assay type: binding; conditions: 0.5 nM His10-SOS1 (res. 564-1049), 2.5 nM GST-KRAS G12C (res. 1-169), 2 hrs at RT
Method in brief: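 GST-KRAS G12C (res. 1-169) at 2.5 nM and His10-SOS1 (res. 564-1049) at 0.5 nM, final, in PBS with 0.1% BSA, 5 mM MgCl2, 100 mM KF, 5 mM DTT and 0.5% DMSO. After 2 h at RT, FRET read at 665/615 nm and normalized to DMSO and no-SOS1 controls. IC50 by non-linear regression.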

human SOS1 = human SOS1 (Homo sapiens (Human), UniProt Q07889); assay: Surface Plasmon Resonance (SPR) SOS1 Binding Assay; conditions: biotinylated SOS1 (res. 564-1049), Biacore 8K, 25° C., kinetic or steady state fit, 1:1 binding; read-out: hSOS1 KD
human SOS1, sequence (Q07889 564-1049): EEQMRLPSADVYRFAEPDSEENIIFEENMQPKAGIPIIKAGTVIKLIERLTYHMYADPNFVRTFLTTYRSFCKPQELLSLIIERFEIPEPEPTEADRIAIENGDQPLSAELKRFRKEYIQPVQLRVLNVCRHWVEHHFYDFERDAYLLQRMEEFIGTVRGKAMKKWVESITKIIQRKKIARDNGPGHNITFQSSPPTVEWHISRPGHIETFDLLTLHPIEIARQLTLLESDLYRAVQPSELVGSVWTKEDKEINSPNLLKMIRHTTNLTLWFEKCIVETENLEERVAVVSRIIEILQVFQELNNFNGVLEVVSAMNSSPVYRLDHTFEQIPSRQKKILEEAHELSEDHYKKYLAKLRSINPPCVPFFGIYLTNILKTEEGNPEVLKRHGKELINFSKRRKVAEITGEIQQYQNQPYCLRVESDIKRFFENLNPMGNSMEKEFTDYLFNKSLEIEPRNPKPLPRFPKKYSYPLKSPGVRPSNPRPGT
Experimental: Binding to SOS1 was measured using a SPR assay with purified recombinant human SOS1 substrate (res. 564-1049 with N-terminal Avi tag; purified and biotinylated based on Hillig, et al., Proc Natl Acad Sci USA (2019); 116(7):2551-2560). SPR measurements were performed on a Biacore 8K SPR instrument (GE Healthcare, Sweden). Assays were performed at 25° C. using Series S SA sensor chips pre-coated with streptavidin (GE Healthcare, Cat. BR100531). Biotinylated SOS1 diluted in sample buffer (20 mM Tris HCI, 150 mM NaCl, 1 mM DTT, 0.05% TWEEN 20, 1 mM MgCh, pH 8.0) was captured to one flow cell of the chip to about 3,000 resonance units (RU) using sample buffer supplemented with 5% DMSO as a running buffer. Serial dilutions of the assayed compounds in the running buffer at 100, 50 or 0.5 µM were injected for 60 s at a flow rate of 30 µL/min and association phases were recorded. Dissociation of the samples was monitored for 600 s. Data processing was performed using Biacore Insight Software (Biacore, GE Healthcare). Sensorgrams recorded on a SA flow cell without captured protein were subtracted from sensorgrams recorded on the SOS1 surface. Blank injections of running buffer were used for double referencing and solvent correction was applied to all sample sensorgrams to correct for buffer mismatches. KDS were estimated using a kinetic or steady state, where applicable, fitting model describing a reversible equilibrium with 1:1 binding between SOS1 and the compound.

SOS1:KRAS (G12C) interaction, sequence (Q07889 564-1049, stated change not applied): as the sequence (Q07889 564-1049) above

What does the source list for CNc1cc(=O)n(C2CCOCC2)cc1C(=O)N[C@H](C)c1cccc(C(F)(F)F)c1C [Example 12, (R)-N-(1-(2-methyl-3-(trifluoromethyl)phenyl)ethyl)-4-(methylamino)-6-oxo-1-(tetrahydro-2H-pyran-4-yl)-1,6-dihydropyridine-3-carboxamide]?
IC50 [1]: 705 nM; Kd (human SOS1): 245 nM

With Cc1c([C@@H](C)NC(=O)c2cn(C3CCOCC3)c(=O)cc2NC2CCN(CCF)CC2)cccc1C(F)(F)F [Example 16, (R)-4-((1-(2-fluoroethyl)piperidin-4-yl)amino)-N-(1-(2-methyl-3-(trifluoromethyl)phenyl)ethyl)-6-oxo-1-(tetrahydro-2H-pyran-4-yl)-1,6-dihydropyridine-3-carboxamide] as the compound, how does the IC50 [1] read?
The IC50 was 29.4 nM.

And the Kd (human SOS1)?
Its Kd is 23 nM.

C[C@@H](NC(=O)c1cn([C@@H]2CC2(C)C)c(=O)cc1N[C@H]1[C@@H]2CN(C)C[C@@H]21)c1cccc(C(F)F)c1F (single isomer, unassigned) [Example 94] was tested. Which IC50 [1] did it give?
The IC50 was 13.4 nM.

What about the Kd (human SOS1) of the same compound?
Its Kd is 7 nM.

Which results are given for C[C@@H](NC(=O)c1cn(C2(C(F)F)CC2)c(=O)cc1N[C@H]1CCN(C)C[C@@H]1F)c1cccc(C(F)F)c1F (single isomer, unassigned) [Example 66]?
IC50 [1]: 48.6 nM; Kd (human SOS1): 34 nM

C[C@@H](NC(=O)c1cn([C@H]2CCC2(F)F)c(=O)cc1N[C@H]1[C@@H]2CN(C)C[C@@H]21)c1cccc(C(F)(F)F)c1F (single isomer, unassigned) [Example 144] was tested. Which IC50 [1] did it give?
Its IC50 is 4 nM.

What about the Kd (human SOS1) of the same compound?
Its Kd is 3 nM.

For C[C@@H](NC(=O)c1cn(C2(C(F)(F)F)CC2)c(=O)cc1N[C@@H]1[C@@H]2CC[C@H]1CN(C)C2)c1cccc(C(F)F)c1F (single isomer, unassigned) [Example 138], which IC50 [1] is on record?
The IC50 was 19.7 nM.

And the Kd (human SOS1)?
The Kd was 12 nM.

Which results are given for Cc1c([C@@H](C)NC(=O)c2cn(C3CCOCC3)c(=O)cc2N[C@@H]2CCCN(C)C2)cccc1C(F)(F)F [Example 5, N-((R)-1-(2-methyl-3-(trifluoromethyl)phenyl)ethyl)-4-(((R)-1-methylpiperidin-3-yl)amino)-6-oxo-1-(tetrahydro-2H-pyran-4-yl)-1,6-dihydropyridine-3-carboxamide]?
IC50 [1]: 35.5 nM; Kd (human SOS1): 20 nM

How did the IC50 [1] turn out when C[C@@H](NC(=O)c1cn(C23CC(C2)C3)c(=O)cc1N[C@H]1CN2CCC1CC2)c1cccc(C(F)F)c1F [Example 155, 1-(bicyclo[1.1.1]pentan-1-yl)-N-((R)-1-(3-(difluoromethyl)-2-fluorophenyl)ethyl)-6-oxo-4-(((R)-quinuclidin-3-yl)amino)-1,6-dihydropyridine-3-carboxamide] was run?
Its IC50 is 21.2 nM.

What about the Kd (human SOS1) of the same compound?
The Kd was 11 nM.

Which results are given for C[C@@H](NC(=O)c1cn(C2(C(F)F)CC2)c(=O)cc1NC1CCN(C)CC1)c1cccc(C(F)(F)F)c1F [Example 52, (R)-1-(1-(difluoromethyl)cyclopropyl)-N-(1-(2-fluoro-3-(trifluoromethyl)phenyl)ethyl)-4-((1-methylpiperidin-4-yl)amino)-6-oxo-1,6-dihydropyridine-3-carboxamide]?
IC50 [1]: 13.6 nM; Kd (human SOS1): 6 nM

With C[C@@H](NC(=O)c1cn(C2(C(F)(F)F)CC2)c(=O)cc1N[C@H]1[C@@H]2CN(C)C[C@@H]21)c1cccc(C(F)F)c1F [Example 119, N-((R)-1-(3-(difluoromethyl)-2-fluorophenyl)ethyl)-4-(((1R,5S,6s)-3-methyl-3-azabicyclo[3.1.0]hexan-6-yl)amino)-6-oxo-1-(1-(trifluoromethyl)cyclopropyl)-1,6-dihydropyridine-3-carboxamide] as the compound, how does the IC50 [1] read?
Its IC50 is 36.6 nM.

And the Kd (human SOS1)?
The Kd was 23 nM.

CC(C)n1cc(C(=O)N[C@H](C)c2cccc(C(F)F)c2F)c(N[C@H]2[C@@H]3CN(C)C[C@@H]32)cc1=O [Example 99, N-((R)-1-(3-(difluoromethyl)-2-fluorophenyl)ethyl)-1-isopropyl-4-(((1R,5S,6s)-3-methyl-3-azabicyclo[3.1.0]hexan-6-yl)amino)-6-oxo-1,6-dihydropyridine-3-carboxamide] was tested. Which IC50 [1] did it give?
The IC50 was 64.8 nM.

What about the Kd (human SOS1) of the same compound?
The Kd was 30 nM.

How did the IC50 [1] turn out when C[C@@H](NC(=O)c1cn([C@H]2CCC2(F)F)c(=O)cc1NCC1(F)CN(C)C1)c1cccc(C(F)F)c1F [Example 146, 1-((S)-2,2-difluorocyclobutyl)-N-((R)-1-(3-(difluoromethyl)-2-fluorophenyl)ethyl)-4-(((3-fluoro-1-methylazetidin-3-yl)methyl)amino)-6-oxo-1,6-dihydropyridine-3-carboxamide] was run?
The IC50 was 5.4 nM.

And the Kd (human SOS1)?
The Kd was 9 nM.

How did the IC50 [1] turn out when C[C@@H](NC(=O)c1cn(C2(C(F)F)CC2)c(=O)cc1N[C@H]1CCN(C)C[C@H]1F)c1cccc(C(F)F)c1F (single isomer, unassigned) [Example 64] was run?
The IC50 was 15 nM.

And the Kd (human SOS1)?
The Kd was 9 nM.

With C[C@@H](NC(=O)c1cn([C@H]2CCOC[C@@H]2F)c(=O)cc1N[C@H]1[C@@H]2CN(C)C[C@@H]21)c1cccc(C(F)F)c1F [Example 129, N-((R)-1-(3-(difluoromethyl)-2-fluorophenyl)ethyl)-1-((3R,4S)-3-fluorotetrahydro-2H-pyran-4-yl)-4-(((1R,5S,6s)-3-methyl-3-azabicyclo[3.1.0]hexan-6-yl)amino)-6-oxo-1,6-dihydropyridine-3-carboxamide] as the compound, how does the IC50 [1] read?
Its IC50 is 25 nM.

What about the Kd (human SOS1) of the same compound?
Its Kd is 8 nM.

Which IC50 [1] does the source give for C[C@@H](NC(=O)c1cn(C2(C(F)F)CC2)c(=O)cc1N[C@H]1CCNC[C@H]1F)c1cccc(C(F)F)c1F (single isomer, unassigned) [Example 70] here?
Its IC50 is 12.7 nM.

What about the Kd (human SOS1) of the same compound?
The Kd was 4 nM.

What does the source list for C[C@@H](NC(=O)c1cn(C2CC3(C2)CC(F)(F)C3)c(=O)cc1N[C@@H]1CCN(C)C[C@@H]1F)c1cccc(C(F)F)c1F [Example 126, N-((R)-1-(3-(difluoromethyl)-2-fluorophenyl)ethyl)-1-(6,6-difluorospiro[3 .3]heptan-2-yl)-4-(((3S,4R)-3-fluoro-1-methylpiperidin-4-yl)amino)-6-oxo-1,6-dihydropyridine-3-carboxamide]?
IC50 [1]: 4.4 nM; Kd (human SOS1): 2 nM

How did the IC50 [1] turn out when C[C@@H](NC(=O)c1cn([C@@H]2CC23CC3)c(=O)cc1N[C@H]1[C@@H]2CN(C)C[C@@H]21)c1cccc(C(F)F)c1F (single isomer, unassigned) [Example 116] was run?
Its IC50 is 26.7 nM.

What about the Kd (human SOS1) of the same compound?
Its Kd is 11 nM.

C[C@@H](NC(=O)c1cn([C@@H]2CCC2(F)F)c(=O)cc1N[C@H]1[C@@H]2CN(C)C[C@@H]21)c1cccc(C(C)(F)F)c1F (single isomer, unassigned) [Example 149] was tested. Which IC50 [1] did it give?
Its IC50 is 61.6 nM.

What about the Kd (human SOS1) of the same compound?
The Kd was 56 nM.

Which IC50 [1] does the source give for C[C@@H](NC(=O)c1cn([C@@H]2CCC2(F)F)c(=O)cc1N[C@H]1[C@@H]2CN(C)C[C@@H]21)c1cccc(C(F)F)c1F (single isomer, unassigned) [Example 103] here?
The IC50 was 5.7 nM.

And the Kd (human SOS1)?
Its Kd is 3 nM.

With CO[C@H]1CN(C)CC[C@@H]1Nc1cc(=O)n(C2CCOCC2)cc1C(=O)N[C@H](C)c1cccc(C(F)(F)F)c1C (single isomer, unassigned) [Example 25] as the compound, how does the IC50 [1] read?
The IC50 was 71.3 nM.

What about the Kd (human SOS1) of the same compound?
Its Kd is 45 nM.

For C[C@@H](NC(=O)c1cn([C@@]2(C)CCOC2)c(=O)cc1NC1CCN(C)CC1)c1cccc(C(F)F)c1F (single isomer, unassigned) [Example 47], which IC50 [1] is on record?
The IC50 was 4.5 nM.

And the Kd (human SOS1)?
The Kd was 2 nM.

How did the IC50 [1] turn out when CO[C@@H]1CN(C)CC[C@@H]1Nc1cc(=O)n(C2(C(F)F)CC2)cc1C(=O)N[C@H](C)c1cccc(C(F)F)c1F [Example 154, N-((R)-1-(3-(difluoromethyl)-2-fluorophenyl)ethyl)-1-(1-(difluoromethyl)cyclopropyl)-4-(((3R,4S)-3-methoxy-1-methylpiperidin-4-yl)amino)-6-oxo-1,6-dihydropyridine-3-carboxamide] was run?
The IC50 was 37.6 nM.

And the Kd (human SOS1)?
The Kd was 23 nM.

Which results are given for C[C@@H](NC(=O)c1cn(C2(C(F)F)CC2)c(=O)cc1N[C@H]1[C@@H]2CN(C)C[C@@H]21)c1cccc(C(F)(F)F)c1F [Example 130, 1-(1-(difluoromethyl)cyclopropyl)-N-((R)-1-(2-fluoro-3-(trifluoromethyl)phenyl)ethyl)-4-(((1R,5S,6s)-3-methyl-3-azabicyclo[3.1.0]hexan-6-yl)amino)-6-oxo-1,6-dihydropyridine-3-carboxamide]?
IC50 [1]: 26.7 nM; Kd (human SOS1): 23 nM

How did the IC50 [1] turn out when C[C@@H](NC(=O)c1cn(C2(C(F)(F)F)CC2)c(=O)cc1N[C@H]1[C@@H]2CC[C@H]1CN(C)C2)c1cccc(C(F)F)c1F (single isomer, unassigned) [Example 139] was run?
Its IC50 is 49.7 nM.

And the Kd (human SOS1)?
The Kd was 25 nM.

With C[C@H](Nc1cc(=O)n(C2(C(F)F)CC2)cc1C(=O)N[C@H](C)c1cccc(C(F)F)c1F)c1cncn1C [Example 87, N-((R)-1-(3-(difluoromethyl)-2-fluorophenyl)ethyl)-1-(1-(difluoromethyl)cyclopropyl)-4-(((S)-1-(1-methyl-1H-imidazol-5-yl)ethyl)amino)-6-oxo-1,6-dihydropyridine-3-carboxamide] as the compound, how does the IC50 [1] read?
The IC50 was 61.7 nM.

What about the Kd (human SOS1) of the same compound?
The Kd was 84 nM.
